Read-outs that look alike come from different tables or passages of the source.
Legend:
Assay type in all cases: in vivo
[1] = system: wheat (TRZAS), Triticum aestivum (spring wheat); assay: Postemergence greenhouse trial, crop injury (phytotoxicity/safening) on wheat; settings: applied alone at 35 g/ha, scored 20-22 d, 0 = no injury, 100 = complete kill
Protocol: (§1) Seeds of the desired test plant species were planted in Sun Gro MetroMix® 306 planting mixture, which typically has a pH of 6.0 to 6.8 and an organic matter content of about 30 percent, in plastic pots with a surface area of 103.2 square centimeters (cm^2). When required to ensure good germination and healthy plants, a fungicide treatment and/or other chemical or physical treatment was applied. The plants were grown for 7-36 days (d) in a greenhouse with an approximate 14-hour (h) photoperiod which was maintained at about 23° C. during the day and 22° C. during the night. Nutrients and water were added on a regular basis and supplemental lighting was provided with overhead metal halide 1000-Watt lamps as necessary. The plants were employed for testing when they reached the second or third true leaf stage.
(§2) Weighed amounts of technical material were dissolved in a volume of 97:3 volume per volume (v/v) acetone/dimethyl sulfoxide (DMSO) to stock solutions. […] The concentrated stock solutions were diluted with an aqueous mixture of 1.5% v/v of Agri-dex crop oil concentrate to provide the appropriate application rates. Compound requirements are based upon a 12 milliliter (mL) application volume at a rate of 187 liters per hectare (L/ha). Stocks solutions of the safeners were prepared following the same procedure. Spray solutions of the safeners and experimental compound mixtures were prepared by adding the stock solutions to the appropriate amount of dilution solution to form a 12 mL spray solution in two-way combinations. Formulated compounds were applied to the plant material with an overhead Mandel track sprayer equipped with 8002E nozzles calibrated to deliver 187 L/ha over an application area of 0.503 square meters (m^2) at a spray height of 18 inches (43 centimeters (cm)) above average plant canopy. Control plants were sprayed in the same manner with the solvent blank. All herbicide application (component a) rates are in g ae/ha and all safener (component b) rates are in g ai/ha.
(§3) The treated plants and control plants were placed in a greenhouse as described above and watered by sub-irrigation to prevent wash-off of the test compounds. After 20-22 d, the condition of the test plants as compared with that of the control plants was determined visually and scored on a scale of 0 to 100 percent where 0 corresponds to no injury and 100 corresponds to complete kill. The condition of the test plants was compared with that of the control plants as determined visually and scored on a scale of 0 to 100 percent, where 0 corresponds to no injury and 100 corresponds to complete kill. Colby's equation was used to determine the herbicidal effects expected from the mixtures.
(§4) The safener fenchlorazole-ethyl was combined with compound 1, compound 2, compound 3, compound 4, compound 5, and compound 6, and applied to wheat (TRZAS), and the phytotoxicity of the herbicidal compositions was measured. In addition, the efficacy of the herbicidal composition on velvetleaf (ABUTH, Abutilon theophrasti), pigweed (AMARE, Amaranthus retroflexus), winter rape (BRSNW, Brassica napus), lambsquarters (CHEAL, Chenopodium album), thistle (CIRAR, Cirsium arvense), nutsedge (CYPES, Cyperus esculentus), poinsettia (EPHHL, Euphorbia heterophylla), wild buckwheat (POLCO, Polygonum convolvulus), giant foxtail (SETFA, Setaria faberi), sorghum (SORVU, Sorghum bicolor), chickweed (STEME, Stellaria media), and wild pansy (VIOTR, Viola tricolor) was evaluated.
The safener isoxadifen-ethyl was combined with compound 1, compound 2, compound 3, compound 4, compound 5, and compound 6, and applied to wheat (TRZAS), and the phytotoxicity of the herbicidal compositions was measured. […]

[2] = system: velvetleaf (ABUTH, Abutilon theophrasti); assay: Postemergence greenhouse trial, herbicidal efficacy on velvetleaf; settings: post-emergence, 528 h
Protocol: as §1, §2, §3

[3] = system: pigweed (AMARE, Amaranthus retroflexus); assay: Postemergence greenhouse trial, herbicidal efficacy on pigweed; settings: post-emergence, 528 h
Protocol: as §1, §2, §3

[4] = system: winter rape (BRSNW, Brassica napus); assay: Postemergence greenhouse trial, herbicidal efficacy on winter rape; settings: post-emergence, 528 h
Protocol: as §1, §2, §3

[5] = system: lambsquarters (CHEAL, Chenopodium album); assay: Postemergence greenhouse trial, herbicidal efficacy on lambsquarters; settings: post-emergence, 528 h
Protocol: as §1, §2, §3

[6] = system: thistle (CIRAR, Cirsium arvense); assay: Postemergence greenhouse trial, herbicidal efficacy on thistle; settings: post-emergence, 528 h
Protocol: as §1, §2, §3

[7] = system: nutsedge (CYPES, Cyperus esculentus); assay: Postemergence greenhouse trial, herbicidal efficacy on nutsedge; settings: applied alone at 35 g/ha; for % visual injury, Obs, CYPES: rated after 20-22 d
Protocol: as §1, §2, §3

[8] = system: poinsettia (EPHHL, Euphorbia heterophylla); assay: Postemergence greenhouse trial, herbicidal efficacy on poinsettia; settings: for pest or weed control at 35 g/ha: Euphorbia heterophylla, post-emergence, 528 h, read-out: % visual injury, Obs, EPHHL
Protocol: as §1, §2, §3

[9] = system: wild buckwheat (POLCO, Polygonum convolvulus); assay: Postemergence greenhouse trial, herbicidal efficacy on wild buckwheat; settings: Fallopia convolvulus, post-emergence, 528 h
Protocol: as §1, §2, §3

[10] = system: sorghum (SORVU, Sorghum bicolor); assay: Postemergence greenhouse trial, herbicidal efficacy on sorghum; settings: applied alone at 35 g/ha; for % visual injury, Obs, SORVU: rated after 20-22 d
Protocol: as §1, §2, §3

[11] = system: chickweed (STEME, Stellaria media); assay: Postemergence greenhouse trial, herbicidal efficacy on chickweed; settings: post-emergence, 528 h
Protocol: as §1, §2, §3

[12] = system: wild pansy (VIOTR, Viola tricolor); assay: Postemergence greenhouse trial, herbicidal efficacy on wild pansy; settings: for pest or weed control at 35 g/ha: Viola tricolor, post-emergence, 528 h, read-out: Obs, % visual injury, VIOTR
Protocol: as §1, §2, §3

[13] = system: corn/maize (ZEAMX), Zea mays; assay: Postemergence greenhouse trial, crop injury (phytotoxicity/safening) on corn/maize; settings: applied alone at 35 g/ha, rated after 20-22 d
Protocol: as §1
as §2, with “All herbicide application (component a) rates are in g ae/ha and all safener (component b) rates are in g ai/ha.” left out
as §3, with “Colby's equation was used to determine the herbicidal effects expected from the mixtures.” left out
as §4, with “compound” for “compound 3, compound 4, compound”, “corn/maize (ZEAMX)” for “wheat (TRZAS),”, “bicolor), and” for “bicolor),”, “media)” for “media), and wild pansy (VIOTR, Viola tricolor)”
The safener mefenpyr-diethyl was combined with compound 1, compound 2, and compound 5, and applied to corn/maize (ZEAMX) and the phytotoxicity of the herbicidal compositions were measured. […]

[14] = applied alone at 35 g/ha, postemergence, rated after 20-22 d
[15] = applied alone at 35 g/ha, postemergence, scored 20-22 d

## CCOC(=O)C1=NN(c2ccc(Cl)cc2Cl)C(C)(C(=O)OCC)C1 (centres unmarked) [mefenpyr-diethyl, reference compound]
[1]
  Obs, % visual injury, TRZAS: 0%
[2]; read-out: % visual injury, Obs, ABUTH
  pest or weed control at 35 g/ha: 0%
[2]; read-out: Obs, % visual injury, ABUTH
  pest or weed control at 35 g/ha: 0%
[3]; read-out: % visual injury, Obs, AMARE
  pest or weed control at 35 g/ha: 0%
[3]; read-out: Obs, % visual injury, AMARE
  pest or weed control at 35 g/ha: 0%
[4]; read-out: % visual injury, Obs, BRSNW
  plant injury at 35 g/ha: 0%
[4]; read-out: Obs, % visual injury, BRSNW
  plant injury at 35 g/ha: 0%
[5]; read-out: % visual injury, Obs, CHEAL
  pest or weed control at 35 g/ha: 0%
[5]; read-out: Obs, % visual injury, CHEAL
  pest or weed control at 35 g/ha: 0%
[6]; read-out: % visual injury, Obs, CIRAR
  pest or weed control at 35 g/ha: 0%
[6]; read-out: Obs, % visual injury, CIRAR
  pest or weed control at 35 g/ha: 0%
[7]
  % visual injury, Obs, CYPES: 0%
[8]
  pest or weed control at 35 g/ha: 0%
[9]; read-out: % visual injury, Obs, POLCO
  pest or weed control at 35 g/ha: 0%
[9]; read-out: Obs, % visual injury, POLCO
  pest or weed control at 35 g/ha: 0%
[10]
  % visual injury, Obs, SORVU: 0%
[10]; scored 20-22 d
  Obs, % visual injury, SORVU: 0%
[11]; read-out: % visual injury, Obs, STEME
  pest or weed control at 35 g/ha: 0%
[11]; read-out: Obs, % visual injury, STEME
  pest or weed control at 35 g/ha: 0%
[12]
  pest or weed control at 35 g/ha: 0%
[12]; [14]
  % visual injury, Obs, VIOTR: 0%
[13]
  % visual injury, Obs, ZEAMX: 0%

## COC(=O)c1nc(-c2ccc3ccn(C(=O)C(C)C)c3c2F)c(F)c(N)c1Cl [compound 4]
[1]
  Obs, % visual injury, TRZAS: 40%
[2]; applied alone at 35 g/ha, postemergence, rated after 20-22 d, read-out: % visual injury, Obs, ABUTH
  pest or weed control at 35 g/ha: 80%
[2]; applied alone at 35 g/ha, postemergence, scored 20-22 d, read-out: Obs, % visual injury, ABUTH
  pest or weed control at 35 g/ha: 80%
[3]; applied alone at 35 g/ha, postemergence, rated after 20-22 d, read-out: % visual injury, Obs, AMARE
  pest or weed control at 35 g/ha: 100%
[3]; applied alone at 35 g/ha, postemergence, scored 20-22 d, read-out: Obs, % visual injury, AMARE
  pest or weed control at 35 g/ha: 100%
[4]; applied alone at 35 g/ha, postemergence, rated after 20-22 d, read-out: % visual injury, Obs, BRSNW
  plant injury at 35 g/ha: 97%
[4]; applied alone at 35 g/ha, postemergence, scored 20-22 d, read-out: Obs, % visual injury, BRSNW
  plant injury at 35 g/ha: 97%
[5]; applied alone at 35 g/ha, postemergence, rated after 20-22 d, read-out: % visual injury, Obs, CHEAL
  pest or weed control at 35 g/ha: 97%
[5]; applied alone at 35 g/ha, postemergence, scored 20-22 d, read-out: Obs, % visual injury, CHEAL
  pest or weed control at 35 g/ha: 97%
[6]; applied alone at 35 g/ha, postemergence, rated after 20-22 d, read-out: % visual injury, Obs, CIRAR
  pest or weed control at 35 g/ha: 75%
[6]; applied alone at 35 g/ha, postemergence, scored 20-22 d, read-out: Obs, % visual injury, CIRAR
  pest or weed control at 35 g/ha: 75%
[7]
  % visual injury, Obs, CYPES: 0%
[7]; scored 20-22 d
  Obs, % visual injury, CYPES: 0%
[8]; [14]
  pest or weed control at 35 g/ha: 100%
[8]; [15]
  Obs, % visual injury, EPHHL: 100%
[9]; applied alone at 35 g/ha, postemergence, rated after 20-22 d, read-out: % visual injury, Obs, POLCO
  pest or weed control at 35 g/ha: 100%
[9]; applied alone at 35 g/ha, postemergence, scored 20-22 d, read-out: Obs, % visual injury, POLCO
  pest or weed control at 35 g/ha: 100%
[10]
  % visual injury, Obs, SORVU: 80%
[11]; applied alone at 35 g/ha, postemergence, rated after 20-22 d, read-out: % visual injury, Obs, STEME
  pest or weed control at 35 g/ha: 93%
[11]; applied alone at 35 g/ha, postemergence, scored 20-22 d, read-out: Obs, % visual injury, STEME
  pest or weed control at 35 g/ha: 93%
[12]; [15]
  pest or weed control at 35 g/ha: 60%
[13]
  % visual injury, Obs, ZEAMX: 35%
